Source: the supplement of paper PMC11208160

Test: recombinant barcode read abundance after kanamycin selection (control-corrected) (log10(CPM+1)); higher = more efficient recombination; sequences stand for … in AGTGCAGAGAAAATCGGCCAGTTTTCTCTGCCTGCAGTCCGCATGCCGT…AGATTTATGCAGCGGACTGCCTTTCTCCCAAAGTGATAAACCGGACAGTATCATGGACCGGTTTTCCCGGTAATCCGTATTTGCAAGGTTGGTTTCACT; site = the 11-nt target
Outline: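 Oligos holding a promoter, target, barcode and the J23119-driven first 104 bases of the bridge RNA were Gibson-cloned into a vector that supplied the other 73 bp plus a T7-inducible recombinase. This library was co-electroporated with a donor plasmid into E. coli. Two replicates went on chloramphenicol/ampicillin LB agar (control) and two on chloramphenicol/ampicillin/kanamycin with 0.1 mM IPTG. Recombination efficiency is read from averaged, control-corrected barcode counts per million at recombinant junctions, reported as log10(CPM+1).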
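Also: IS621 recombinase and bridge RNA in Escherichia coli cells.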

Sequence | recombinant barcode read abundance (log10)
CCGTCTACTTGGGTTCTAACCTGTTGCTC (site CCGTCTACTTA) | 0.0131
CCGTTGTCTTGGGTTCTAACCTGTTGCTA (site CCGTTGTCTTA) | 0.48
CCGTTGTCTTGGGTTCTAACCTGTTGCTA (site GGTCGTACTAG) | 0.0443
CCTAAGTCTTGGGTTCTAACCTGTTGCCA (site CCTAAGTCTTG) | 0.11
CCTAAGTCTTGGGTTCTAACCTGTTGCCA (site GACTTAACTAA) | 0.133
CCTAGAACTTGGGTTCTAACCTGTTGCCT (site CCTAGAACTAG) | 0.134
CCTAGAACTTGGGTTCTAACCTGTTGCCT (site CCTAGACCTAG) | 0.0135
CCTAGAACTTGGGTTCTAACCTGTTGCCT (site CCTAGAGCTAG) | 0.126
CCTAGAACTTGGGTTCTAACCTGTTGCCT (site CCTAGATCTAG) | 0.0929
CCTCATACTTGGGTTCTAACCTGTTGCCA (site CCTCATACTTG) | 0.179
CCTCATACTTGGGTTCTAACCTGTTGCCA (site GGAGTACCTAT) | 0.02
CCTCCCTCTTGGGTTCTAACCTGTTGCTG (site CCTCCCTCTCA) | 2.49
CCTCCCTCTTGGGTTCTAACCTGTTGCTG (site CCTCCCTCTTA) | 0.036
CCTCGATCTTGGGTTCTAACCTGTTGCAT (site CCTCGATCTAT) | 1.59
CCTCGATCTTGGGTTCTAACCTGTTGCAT (site TCTCGATCTAT) | 0.185
CCTCGGCCTTGGGTTCTAACCTGTTGCAT (site CCACGGCCTAT) | 0.0708
CCTCGGCCTTGGGTTCTAACCTGTTGCAT (site CCTCGGCCTAT) | 0.862
CCTCGTCCTTGGGTTCTAACCTGTTGCCC (site CCTCGTCCTGG) | 0.175
CCTCGTCCTTGGGTTCTAACCTGTTGCCC (site TAGGACTCTAT) | 0.00798
CCTCTGCCTTGGGTTCTAACCTGTTGCCT (site CCTCTGCCTAG) | 0.855
CCTCTGCCTTGGGTTCTAACCTGTTGCCT (site CGTCTCCCTAG) | 0.103
CCTGAATCTTGGGTTCTAACCTGTTGCCT (site CCTGAATCTAG) | 0.1
CCTGAATCTTGGGTTCTAACCTGTTGCCT (site CCTGACTCTAG) | 0.19
CCTGAATCTTGGGTTCTAACCTGTTGCCT (site CCTGAGTCTAG) | 0.279
CCTGAATCTTGGGTTCTAACCTGTTGCCT (site CCTGATTCTAG) | 0.073
CCTGAGTCTTGGGTTCTAACCTGTTGCCT (site CCTGAATCTAG) | 0.289

Sequence | recombinant barcode read abundance (log10)
CCTGAGTCTTGGGTTCTAACCTGTTGCCT (site CCTGACTCTAG) | 0.0437
CCTGAGTCTTGGGTTCTAACCTGTTGCCT (site CCTGAGTCTAG) | 1.01
CCTGAGTCTTGGGTTCTAACCTGTTGCCT (site CCTGATTCTAG) | 0.0908
CCTGGGCCTTGGGTTCTAACCTGTTGCCT (site CATGGGCCTAG) | 0.0944
CCTGGGCCTTGGGTTCTAACCTGTTGCCT (site CCTGGGCCTAG) | 0.11
CCTGGGCCTTGGGTTCTAACCTGTTGCCT (site CGTGGGCCTAG) | 0.0559
CCTGGGCCTTGGGTTCTAACCTGTTGCCT (site CTTGGGCCTAG) | 0
CCTGGGTCTTGGGTTCTAACCTGTTGCTT (site CATGGGTCTAG) | 0.0557
CCTGGGTCTTGGGTTCTAACCTGTTGCTT (site CCTGGGTCTAA) | 1.08
CCTGTCACTTGGGTTCTAACCTGTTGCCA (site CCTGTCACTTG) | 0.474
CCTGTCACTTGGGTTCTAACCTGTTGCCA (site TACCGAGCTCA) | 0.11
CCTTGAGCTTGGGTTCTAACCTGTTGCTG (site CCTTGAGCTCA) | 0.308
CCTTGAGCTTGGGTTCTAACCTGTTGCTG (site GCTTGAGCTCG) | 0.0694
CCTTGTACTTGGGTTCTAACCTGTTGCTT (site AGCATCTCTCG) | 0.0216
CCTTGTACTTGGGTTCTAACCTGTTGCTT (site CCTTGTACTAA) | 0.131
CCTTTGACTTGGGTTCTAACCTGTTGCTT (site CCTTTGACTAA) | 0.0825
CCTTTGACTTGGGTTCTAACCTGTTGCTT (site CCTTTGTCTAA) | 0.156
CGAACCGCTTGGGTTCTAACCTGTTGCCT (site CAAACCGCTAG) | 0.26
CGAACCGCTTGGGTTCTAACCTGTTGCCT (site CCAACCGCTAG) | 0.0439
CGAACCGCTTGGGTTCTAACCTGTTGCCT (site CGAACCGCTAG) | 0.974
CGAACCGCTTGGGTTCTAACCTGTTGCCT (site CTAACCGCTAG) | 0.0258
CGAACCTCTTGGGTTCTAACCTGTTGCCG (site CGAACCTCTCG) | 0.903
CGAACCTCTTGGGTTCTAACCTGTTGCCG (site CGAATCCCTCG) | 0.0358
CGAACTACTTGGGTTCTAACCTGTTGCAT (site CGAACTACTAA) | 0.215
CGAACTACTTGGGTTCTAACCTGTTGCAT (site CGAACTACTAC) | 0.168
CGAACTACTTGGGTTCTAACCTGTTGCAT (site CGAACTACTAG) | 0.0576

Sequence | recombinant barcode read abundance (log10)
CGAACTACTTGGGTTCTAACCTGTTGCAT (site CGAACTACTAT) | 0.239
CGAACTACTTGGGTTCTAACCTGTTGCTT (site CGAACTACTAA) | 0.142
CGAACTACTTGGGTTCTAACCTGTTGCTT (site CGAACTACTAC) | 0.205
CGAACTACTTGGGTTCTAACCTGTTGCTT (site CGAACTACTAG) | 0.202
CGAACTACTTGGGTTCTAACCTGTTGCTT (site CGAACTACTAT) | 0.0384
CGAAGGACTTGGGTTCTAACCTGTTGCTA (site CGAAGGACTTA) | 0.973
CGAAGGACTTGGGTTCTAACCTGTTGCTA (site CTAAGGACTTA) | 0.231
CGAATCACTTGGGTTCTAACCTGTTGCCT (site CGAATCACTAG) | 0.686
CGAATCACTTGGGTTCTAACCTGTTGCCT (site CGAATCCCTAG) | 0.062
CGAATCACTTGGGTTCTAACCTGTTGCCT (site CGAATCGCTAG) | 0.182
CGAATCACTTGGGTTCTAACCTGTTGCCT (site CGAATCTCTAG) | 0.0867
CGAATCCCTTGGGTTCTAACCTGTTGCCG (site CGAACCTCTCG) | 0.185
CGAATCCCTTGGGTTCTAACCTGTTGCCG (site CGAATCCCTCG) | 0.906
CGACAATCTTGGGTTCTAACCTGTTGCTT (site CGACAATCTAA) | 0.0157
CGACAATCTTGGGTTCTAACCTGTTGCTT (site TCTAGGACTTT) | 0.27
CGACACACTTGGGTTCTAACCTGTTGCCT (site CGACACACTAG) | 0.135
CGACACACTTGGGTTCTAACCTGTTGCCT (site CGCCACACTAG) | 0.0974
CGACACACTTGGGTTCTAACCTGTTGCCT (site CGGCACACTAG) | 0.0559
CGACACACTTGGGTTCTAACCTGTTGCCT (site CGTCACACTAG) | 0.0536
CGACAGGCTTGGGTTCTAACCTGTTGCCT (site AGACTGGCTAG) | 0.073
CGACAGGCTTGGGTTCTAACCTGTTGCCT (site CGACAGGCTAG) | 0.439
CGACGCACTTGGGTTCTAACCTGTTGCGG (site CGACGCACTCC) | 0.584
CGACGCACTTGGGTTCTAACCTGTTGCGG (site TAGTTGTCTAA) | 0.0412
CGAGACGCTTGGGTTCTAACCTGTTGCCT (site CCATACGCTAG) | 0.109
CGAGACGCTTGGGTTCTAACCTGTTGCCT (site CGAGACGCTAG) | 1.87
